Assay results as given in paper PMC11945486, “TAS1R2/TAS1R3 Single-Nucleotide Polymorphisms Affect Sweet Taste Receptor Activation by Sweeteners: The SWEET Project” (Nutrients, 2025).

Target: T1, human TAS1R2-I234V (subunit alone) (Homo sapiens, UniProt Q8TE23, I234V)
T1 construct: expressed in transfected cells; host or cells: HEK293T-Gα16gust44
T1 sequence (Q8TE23 20-839 I234V): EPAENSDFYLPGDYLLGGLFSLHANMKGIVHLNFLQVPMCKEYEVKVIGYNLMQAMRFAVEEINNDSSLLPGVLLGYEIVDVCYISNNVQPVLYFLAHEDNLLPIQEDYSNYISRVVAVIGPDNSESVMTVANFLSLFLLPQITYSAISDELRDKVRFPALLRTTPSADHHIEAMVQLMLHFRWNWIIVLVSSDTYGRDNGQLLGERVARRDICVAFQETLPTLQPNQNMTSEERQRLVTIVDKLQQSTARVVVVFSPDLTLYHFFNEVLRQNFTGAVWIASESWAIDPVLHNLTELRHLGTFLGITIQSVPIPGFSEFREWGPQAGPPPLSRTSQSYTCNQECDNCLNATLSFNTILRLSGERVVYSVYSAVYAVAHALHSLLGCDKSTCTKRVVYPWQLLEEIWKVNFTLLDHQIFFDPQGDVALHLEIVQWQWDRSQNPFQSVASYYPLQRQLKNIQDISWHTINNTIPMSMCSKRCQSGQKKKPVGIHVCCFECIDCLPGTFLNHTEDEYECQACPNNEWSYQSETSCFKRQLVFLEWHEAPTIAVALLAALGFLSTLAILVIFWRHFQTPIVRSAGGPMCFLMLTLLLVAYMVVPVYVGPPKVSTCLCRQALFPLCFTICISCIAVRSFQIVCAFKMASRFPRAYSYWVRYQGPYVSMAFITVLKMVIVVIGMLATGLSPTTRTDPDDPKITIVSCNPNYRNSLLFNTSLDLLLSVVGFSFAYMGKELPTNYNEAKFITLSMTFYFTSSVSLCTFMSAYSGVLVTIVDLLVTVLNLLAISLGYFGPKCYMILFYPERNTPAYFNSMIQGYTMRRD
Assay: Calcium mobilisation assay, TAS1R2-I234V subunit alone
Assay type: cell-based
Description: The coding sequences for TAS1R2 and TAS1R3 were commercially synthesised, and the human codon was optimised for expression in human cells. The coding sequences of human TAS1R2 and TAS1R3 were subcloned and inserted into the mammalian expression vectors pcDNA6/myc-HisA and pcDNA4/myc-HisA (Invitrogen; Thermo Fisher Scientific; Illkirch, France) between the EcoRI and NotI restriction sites, generating the plasmids pcDNA6-TAS1R2 and pcDNA4-TAS1R3, respectively. To increase protein expression in mammalian cells, an upstream start codon was used, which was a sequence called MAX, corresponding to the QBI SP163 element also described in pcDNA4-HisMax (Invitrogen; Thermo Fisher Scientific; Illkirch, France). To measure the expression level of the receptor by immunohistochemistry, we used the FLAG sequence ([…]) in the C-terminal position, which encodes the FLAG tag epitope. […]
The HEK293T cells were kindly provided by Jay P. Slack (Givaudan Flavors Corporation; Cincinnati, OH, USA). […] The fluorescence intensity was measured for 90 s (excitation 488 nm, emission 510 nm) in an automated fluorometric FlexStation®3 Multi-Mode microplate reader (Molecular Devices; San Jose, CA, USA). […] The Ca^2+ changes were expressed as fractional changes in fluorescent light intensity: ΔF/F = (F − F0)/F0, where F was the fluorescent light intensity at each point, and F0 was the value of emitted fluorescent light prior to stimulus application. To calculate dose–response relationships, the changes in fluorescence upon stimulus application were averaged, mock-subtracted and baseline-corrected. […] The half-maximal effective concentrations (EC50 values) and maximal signal amplitudes were calculated using SigmaPlot software (version 15.0) (Systat Software; San Jose, CA, USA).
For in vitro calcium mobilisation assay performed on hTAS1R2-SNPs, hTAS1R3-SNPs and mTAS1R3-I60T, 6 to 7 concentrations were tested for each sweet compound, plus buffer alone. All concentration–receptor combinations were measured in duplicate, and each experiment was repeated at least 4 times (8 wells/concentration). […]

Compound: C=C(C)[C@@H]1CC=C(/C=N/O)CC1 [Perillartine, perillartine]
- EC50: 311 ± 24.6 µM
- R1 = Variant EC50/WT EC50: 3.5
- Max ΔF/F0 (maximal signal amplitude): 0.29 ± 0.01
